From PubChem BioAssay AID624404 (Broad Institute, 2012)
Inconclusive results are not listed. The source made the active and inactive calls.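 The calls were made as follows: active = luciferase signal rise whose fitted curve crosses a set activity limit at or below the top valid tested dose; inconclusive = flat fit with 30 to 70% rise, or poor fit; inactive = signal falling, flat within 30%, or crossing above top dose.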

tested on: D54 LucT luciferase reporter counterscreen, luminescence, 24 h; test: reporter signal increase, D54 LucT cells – cell-based, luminescence, cherry pick, counter-screen for N-linked glycosylation inhibitor project, dose response (AID 624404)

Going from `COc1ccccc1-c1csc(C(NC(C)=O)c2cccc(F)c2)n1` (stereo not drawn) to `COc1cccc(C(NC(C)=O)c2nc(-c3ccccc3OC)cs2)c1` (stereo not drawn), the AC35 falls from 590 nM to 93.3 nM (6.3-fold).

Going from `C(=N\Nc1nc2ccccc2[nH]1)/c1c[nH]c2ccccc12` to `O=c1cc(-c2ccccc2)[nH]c2ccccc12`, the AC35 rises from 718 nM to 2480 nM (3.5-fold).

Going from `Cc1ccnc(NC(=O)C(Cc2ccccc2)NC(=O)c2ccccc2)c1` (stereo not drawn) to `CC1(C(=O)NCc2ccccc2)Cc2c(-c3cccc(C(N)=O)c3)ccnc2O1` (stereo not drawn), the AC35 rises from 335 nM to 651 nM (1.9-fold).

Going from `CC[C@H](C)[C@@H](NC(=O)O[C@@H]1C(=O)c2cc(OC)ccc2O[C@H]1c1ccc(OC)c(Br)c1)C(=O)OC` to `COc1ccc(OC)c(N(CC(=O)Nc2cccc3ccccc23)S(C)(=O)=O)c1`, the AC35 rises from 1480 nM to 2420 nM (1.6-fold).

First: CCN(CC)c1ccc(/C=N\NC(=O)c2cccc3cc[nH]c23)cc1
Second: Cc1ccc(/C=N/NC(=O)c2sccc2OCc2ccc(F)cc2)cc1
The AC35 of the first is 1.5-fold higher: 1940 nM for the first, 1260 nM for the second.

`Cc1cc(NS(=O)(=O)c2ccc(NC(=O)COc3c(C)cc(Br)cc3C)cc2)no1` and `COc1ccc(CC(=O)Nc2ccc(-c3ccc4nnc(C)n4n3)cc2)cc1OC` are within 1.5-fold of each other in AC35: 1660 nM for the first, 1800 nM for the second.

First: c1ccc(CNc2ncnc3c2cnn3-c2ccccc2)cc1
Second: COc1ccc(Sc2nnc(Cc3ccccc3)c3ccccc23)cc1
The AC35 of the first is 6.1-fold lower: 719 nM for the first, 4370 nM for the second.

Compared with `CCOc1ccc2[nH]c(C(=O)N/N=C/c3cc(OC)c(OC)c(OC)c3)cc2c1`, `COc1ccc(/C=N/NC(=O)c2sccc2OCc2ccc(F)cc2)cc1OC` is 3.4-fold lower in AC35: 3270 nM for the first, 952 nM for the second.

First: C[C@@H](NC(=O)c1nc[nH]c1C(=O)N1CCN(c2ccccc2)CC1)c1ccccc1
Second: CCOc1ccc(N2C(=O)Nc3ccccc3C2(O)C(=O)N2CCN(c3ccccn3)CC2)cc1 (stereo not drawn)
The AC35 of the first is 1.5-fold higher: 1830 nM for the first, 1200 nM for the second.

`CCOC(=O)C1CCN(c2c(N3CCN(Cc4ccccc4)CC3)c(=O)c2=O)CC1` and `O=C(Nc1ccccc1-c1ccccc1)C1CCCC1` are the same in AC35: 1220 nM for the first, 1220 nM for the second.

Going from `Cc1cc(NCCN2CCOCC2)c2ccc3ccccc3c2n1` to `COc1ccc2nc(C)cc(Nc3ccc(N4CCN(C)CC4)cc3)c2c1`, the AC35 rises from 17.8 nM to 4750 nM (270-fold).

Compared with `CN(Cc1ccccc1)c1nc2c(c(=O)[nH]c(=O)n2C)n1CCCc1ccccc1`, `O=C(C[C@H]1C/C=C\C[C@H](Cc2ccc(F)cc2)C(=O)O[C@@H](c2ccccc2)CNC1=O)N[C@@H](CO)Cc1ccccc1` is 1.6-fold lower in AC35: 909 nM for the first, 575 nM for the second.

First: O=C(CSc1nnc(-c2cc3ccccc3cc2O)n1Cc1ccco1)N1CCc2ccccc2C1
Second: O=C1Cc2c(-c3ccccc3)cc(-c3cccc(Cl)c3)nc2-c2ccccc2N1
The AC35 of the first is 4.2-fold lower: 1280 nM for the first, 5370 nM for the second.

First: c1ccc(C2=Nn3c(nnc3-c3n[nH]c4c3CCC4)SC2)cc1
Second: CCOc1cc(-c2c(C#N)c(N)nc3c2CCc2ccccc2-3)ccc1O
The AC35 of the first is 1.7-fold lower: 2250 nM for the first, 3850 nM for the second.

`Cc1ccnc(NC(=O)CN2C(=O)NC(C)(c3ccc4ccccc4c3)C2=O)c1` (stereo not drawn) and `CCn1c2ccccc2c2cc(Nc3cc(C)nc4ncnn34)ccc21` are within 1.5-fold of each other in AC35: 362 nM for the first, 420 nM for the second.

First: O=C(N/N=C/c1ccc(Cl)cc1)c1sccc1OCc1ccc(F)cc1
Second: Cn1c(-c2ccccc2)c(/C=N/NC(=O)c2ccc(O)cc2)c2ccccc21
The AC35 of the first is 1.6-fold higher: 514 nM for the first, 319 nM for the second.

Compared with `CCc1ccc(CNC(=O)Cc2ccc(NC(=O)C3=C(C)OCCS3)cc2)cc1`, `COc1ccc(NC(=O)C2Cc3c(-c4cccc(C(C)=O)c4)ccnc3O2)cc1` (stereo not drawn) is 3.5-fold lower in AC35: 320 nM for the first, 90.9 nM for the second.

First: COc1ccc(OC)c(Nc2nc(-c3c(C)nc4ncccn34)cs2)c1
Second: COc1ccc(OC)c(-c2cc(-c3cccnc3)nc(N)c2C#N)c1
The AC35 of the first is 4.8-fold higher: 1100 nM for the first, 227 nM for the second.

Going from `Cc1ccc2c(c1)C(=O)N1[C@H]3c4cc(Br)ccc4OC[C@@H]3[C@H](c3ccccc3)[C@]1(C)C(=O)N2` to `Cc1ccc2c(c1)C(=O)N1[C@H]3c4cc(C)ccc4OC[C@@H]3[C@H](c3ccccc3)[C@]1(C)C(=O)N2`, the AC35 rises from 241 nM to 499 nM (2.1-fold).

Compared with `O=C(NO)c1ccc(OC(F)F)cc1`, `CC(C)Oc1ccc(C(=O)Nc2ccc3c(c2)n(C)c(=O)n3C)cc1` is 3.6-fold higher in AC35: 1520 nM for the first, 5520 nM for the second.

First: CC(C)(C)S(=O)(=O)N1C[C@@H]2CC/C=C\C/C(c3ccccc3)=C\2[C@H]1CCO
Second: Cn1c(=O)n(C)c2cc(S(=O)(=O)N3CCCc4ccccc43)ccc21
The AC35 of the first is 16-fold lower: 645 nM for the first, 10200 nM for the second.

Going from `COc1ccc(C(=O)c2sc(Nc3ccccc3)nc2N)cc1` to `COc1ccc(C(=O)/C=C/c2ccccc2)c(O)c1`, the AC35 falls from 645 nM to 404 nM (1.6-fold).

First: COc1ccc2c(c1)OC[C@H]1[C@H]2N2C(=O)c3cc(Cl)ccc3NC(=O)[C@@]2(C)[C@H]1c1ccccc1
Second: COc1ccc2c(c1)[C@H]1[C@H](CO2)[C@H](c2ccccc2)[C@]2(C)C(=O)Nc3ccc(F)cc3C(=O)N12
The AC35 of the first is 1.7-fold higher: 996 nM for the first, 582 nM for the second.

First: COc1ccccc1-c1cc(NC=O)c2ncc(-c3cccc(C(=O)N(C)C)c3)n2c1
Second: COc1cc(-c2coc3c(C(=O)NCc4ccc(OC)c(OC)c4)cccc23)ccc1O
The AC35 of the first is 58-fold lower: 48.3 nM for the first, 2800 nM for the second.

`CCOC(=O)N/N=C/c1ccc(N(CC)CC)cc1O` and `COCCCNC(=O)c1sc2ncn(CC(=O)Nc3ccc(C)c(Cl)c3)c(=O)c2c1C` are within 1.5-fold of each other in AC35: 2580 nM for the first, 2510 nM for the second.

Compared with `COc1cc(-c2nccc3cc4c(cc23)OCO4)cc(OC)c1OC`, `COc1ccc(CCNC(=O)c2cc(-c3ccco3)on2)cc1OC` is 240-fold higher in AC35: 61.7 nM for the first, 15000 nM for the second.

First: COc1cc(C(=O)NC2CCN(C)CC2)ccc1Nc1ncc2c(n1)N(C1CCCCC1)CCC(=O)N2C
Second: COc1ccc(C(=O)N/N=C/C23CC[C@@H](O)CC2(O)CC[C@@H]2[C@@H]3CCC3(C)C(C4=CC(=O)OC4)CCC23O)cc1 (stereo partly drawn)
The AC35 of the first is 13-fold lower: 30.5 nM for the first, 388 nM for the second.

First: O=C(c1ccc2ncsc2c1)N1CCN(c2cccc(C(F)(F)F)c2)CC1
Second: CNC(=O)c1cccn(Cc2ccc(C(F)(F)F)cc2)c1=O
The AC35 of the first is 2-fold lower: 629 nM for the first, 1240 nM for the second.

First: O=C(/C=C/c1ccco1)Nc1nnc(-c2ccco2)s1
Second: Cc1ccc2nc(Cl)c(/C=C/C(=O)c3ccco3)cc2c1
The AC35 of the first is 7.5-fold lower: 204 nM for the first, 1530 nM for the second.

Going from `Cc1cnc2cc(Cl)c(Cl)cc2n1` to `Clc1ccc(CSc2cnnc3ccccc23)cc1Cl`, the AC35 falls from 5410 nM to 2090 nM (2.6-fold).

First: COc1ccc(-n2c(=S)[nH]c3cc(C(=O)Nc4ccc(F)cc4)ccc3c2=O)c(OC)c1
Second: Cc1ccc(-c2cc(C(=O)Nc3ccncc3)c3ccccc3n2)cc1
The AC35 of the first is 2.9-fold lower: 1470 nM for the first, 4300 nM for the second.

Going from `COc1ccc(Nc2cc(C)nc(-n3nc(C)cc3C)n2)cc1` to `CC(=O)c1ccc(Nc2nc(-c3sc(C)nc3C)cs2)cc1`, the AC35 falls from 150 nM to 17.3 nM (8.7-fold).

`O=C(NCCN1C(=O)S/C(=C\c2ccccc2F)C1=O)C1=COCCO1` and `O=C(/C=C/c1ccccc1Cl)c1ccc(O)cc1` are within 1.5-fold of each other in AC35: 214 nM for the first, 201 nM for the second.

Going from `COc1ccccc1NS(=O)(=O)c1ccc(-c2cc(C)no2)s1` to `O=C1Cc2c([nH]c3ccc(Br)cc23)-c2ccccc2N1`, the AC35 falls from 18300 nM to 2.52 nM (7300-fold).

Going from `OC1CCCN(Cc2ccc3ccc4cccc5ccc2c3c45)C1` (stereo not drawn) to `CC(Nc1nc(-c2cccnc2)nc2ccccc12)c1ccc(F)cc1` (stereo not drawn), the AC35 rises from 890 nM to 3450 nM (3.9-fold).

Compared with `CCC(c1nc2ccccc2c(=O)n1-c1nc2ccccc2s1)N1C(=O)c2ccccc2C1=O` (stereo not drawn), `Cc1nc(-c2ccccc2)sc1-c1nc(-c2ccncc2)ncc1S(=O)(=O)c1ccccc1` is 1.8-fold lower in AC35: 740 nM for the first, 411 nM for the second.

First: CC1c2cc3c(cc2CCN1C(=O)c1ccc(Br)cc1)OCCCO3 (stereo not drawn)
Second: O=C(C=Cc1cccc(O)c1)c1ccccc1O
The AC35 of the first is 26-fold lower: 172 nM for the first, 4500 nM for the second.

`COC(=O)c1c(C)[nH]c(C(=O)/C=C/c2cccc(Cl)c2)c1C` and `Cn1c(=O)n(C)c2cc(NC(=O)CCl)ccc21` are within 1.5-fold of each other in AC35: 839 nM for the first, 707 nM for the second.

In the case of `CC1(C(=O)NCCC(F)(F)F)Cc2c(-c3cccc(C(F)(F)F)c3)ccnc2O1` (stereo not drawn), the AC35 is reported as > 19500 nM (inactive).
For `COc1ccc(NC(=O)c2cc(S(=O)(=O)N(C)C)ccc2N2CCCC2)cc1Cl`, the AC35 was > 19500 nM (inactive).
